Measured values reported in US6777204B1, “Receptor protein and method for diagnosing inflammatory diseases by using the same” (Asahi Kasei Kabushiki Kaisha, priority 1998, dated 2004).

Assays:
C5L2 protein = biological target: T1, C5L2 protein (Homo sapiens, UniProt Q9P296); test: Ligand screening: binding of radio-labeled candidate compound to cell membrane fraction of 293 cells transformed with pcDNAC5L2 versus empty-vector control; conditions: final concentration of CGS21680 100 nM; 37° C. for 30 minutes; supernatant counted by liquid scintillation
T1 construct: Myc (C); His (C); expressed in transfected cells; host or cells: 293 cell line (ATCC CRL-1573), cell membrane fraction
T1 sequence (Q9P296 whole entry): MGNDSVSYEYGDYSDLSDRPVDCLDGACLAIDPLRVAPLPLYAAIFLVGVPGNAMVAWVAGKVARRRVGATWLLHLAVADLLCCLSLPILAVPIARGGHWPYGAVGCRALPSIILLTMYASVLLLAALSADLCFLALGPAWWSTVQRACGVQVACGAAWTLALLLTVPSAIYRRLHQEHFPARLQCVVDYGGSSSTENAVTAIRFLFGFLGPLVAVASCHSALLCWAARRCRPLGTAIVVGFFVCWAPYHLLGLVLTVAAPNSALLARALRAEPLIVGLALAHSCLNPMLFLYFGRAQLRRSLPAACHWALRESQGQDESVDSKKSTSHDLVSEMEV
Method: The transformants were incubated for 48 to 72 hours. The incubated cells were washed with PBS and, then, 1 ml/plate of EDTA-containing PBS (EDTA concentration: 0.01%) was added to the washed cells. Using Cell Scraper-L (catalog number: MS-93300) (manufactured and sold by Sumitomo Bakelite Co., Ltd., Japan), the cells were scraped off from the plate and washed twice with PBS. The washed cells were suspended in 0.5 ml of 25 mM HEPES solution (pH 7.4) containing Complete™ Protease Inhibitor Cocktail Set (manufactured and sold by Boehringer Mannheim Corporation, Germany), and the resultant cell suspension was transferred to a microtube. […]
The cell membrane fractions were prepared from the 293 cells (i.e., cells of 293 cell line) transformed with pcDNAC5L2 (i.e., C5L2 transformants) and the 293 cells transformed with pcDNA3.1/Myc-His(+)B vector (i.e., control) in substantially the same manner as in Example 5. […] Subsequently, the radioactivity of the prepared sample was measured by means of a scintillation counter (Beckman LS6000LL, manufactured and sold by Beckman Instruments, Inc., U.S.A.). The amount of the unbound candidate compound was determined from the measured radioactivity.

[1] = biological target: T2, C5L2 protein-expressing CHO cells (Homo sapiens, UniProt Q9P296); test: Screening of a substance which antagonizes a ligand: chemotaxis assay of CHO cells transformed with C5L2 toward LPS-administered rat serum; type: cell-based; conditions: NECA final concentration 100 μM in upper and lower compartments; LPS-administered rat serum as ligand source
T2 construct: Myc (C); His (C); expressed in transfected cells; host or cells: CHO cells (ATCC CCL-61), Geneticin-selected
T2 sequence (Q9P296 whole entry): as above
Method: A chemotaxis Assay was Conducted with respect to the CHO cells transformed with C5L2. […] The chemotaxis of the cells in the absence of the antagonist candidate substance against a ligand was compared with that in the presence of the antagonist candidate substance against a ligand.

Row | Compound | radioactivity of unbound candidate compound, C5L2 transformants versus control cells (C5L2 protein) | chemotaxis of the cells in the presence versus absence of the antagonist candidate substance [1]
1 | CCNC(=O)[C@H]1O[C@@H](n2cnc3c(N)nc(NCCc4ccc(CCC(=O)O)cc4)nc32)[C@H](O)[C@@H]1O [CGS21680] | no difference in the radioactivity was observed | 
2 | CCNC(=O)[C@H]1O[C@@H](n2cnc3c(N)ncnc32)[C@H](O)[C@@H]1O [NECA, 5′-(N-ethylcarboxyamide)adenosine] |  | no difference was observed
